Laboratory results reported in patent publication US12577138B2, “Using Daphnia for bioremediation” (priority 2019, dated 2026).

Tested on: Daphnia magna genotype pools
Test: Viability of Daphnia magna genotype pools (1999, 1980, 1960) exposed to Carbaryl for four weeks
Type: in vivo
Conditions: Carbaryl 10 μg/L
Method: The ability to thrive of different Daphnia magna genotype pools resurrected from 1999, 1980, and 1960, was tested in presence of high concentrations of the carbamate insecticide Carbaryl (10 μg/L). Carbamate pesticides have been used at high levels since the 1970s, and so carbamate pesticides represent a common contaminant to current wastewater.
The three genotype pools were exposed to high concentrations of the carbamate insecticide Carbaryl in replicated large aquaria of 10 L. The aquaria contained borehole water to which a known concentration of Carbaryl was added. Each pool comprised different genotypes but the number of individuals in each pool was identical.
Prior to the exposure, the genotypes were individually cultured for two generations in the following conditions to control for maternal effects and synchronize reproduction: 20° C.; long photoperiod (16:8 light:dark regime); feed daily with 0.8 mg Carbon/L of C. vulgaris; medium was renewed every second day. After this phase, five 24-48 h old juveniles from the second brood of the third generation from 7 genotypes of each pool were randomly assigned to three replicated 10 L aquaria resulting in a total of 105 animals per aquarium (5 juveniles×7 genotypes×3 pools). The aquaria were then exposed to Carbaryl for four weeks (3 clonal generations). […]
The initial occurrence of each pool of genotypes was then compared to the random subset of animals sampled at the end of the experiment and genetically fingerprinted. This allowed to quantify changes in the occurrence of pool of genotypes from the three initially equally inoculated three pools. Changes in the occurrence of each pool of genotypes between the inoculum and the end of the experiment were quantified with a chi-squared test using the “stats” package in R v. […]

Q: Which results are given for CNC(=O)Oc1cccc2ccccc12 [Carbaryl]?
A: change in occurrence of genotypes versus initial inoculum (1960 pool): did not experience a significant change in the number of genotypes; change in occurrence of genotypes versus initial inoculum (1980 pool): significantly decrease in the number of genotypes and almost disappeared; change in occurrence of genotypes versus initial inoculum (1999 pool): did not experience a significant change in the number of genotypes
